# In PMC12136991 (ACS chemical neuroscience, 2025):
# Entries after “also recorded” stand apart in the source; their conditions may differ.
# Legend:
# [1] = tested on: mice; assay: Assay of pain-depressed locomotion in mice; assay type: in vivo, mouse
# [2] = target: T1, DOR (hDOR-CHO) (Homo sapiens, UniProt P41143); assay: Competition radioligand binding assay, hDOR-CHO membranes; settings: DOR Receptor binding Ki, CHO cell membranes expressing cloned DOR
# [3] = Multi-point cytosol stability assay, rat; assay type: in vitro ADME; settings: rat cytosol fractions, pH 7.4
# [4] = target: T2, human κ-opioid receptor (OPRK1) (Homo sapiens, UniProt P41145); assay: Forskolin-induced cAMP accumulation assay, KOR antagonist mode
# [5] = target: T3, KOR (mKOR-CHO) (Mus musculus, UniProt P33534); assay: Competition radioligand binding assay, mKOR-CHO membranes
# [6] = target: human μ-opioid receptor (OPRM1) (Homo sapiens, UniProt P35372); assay: cell-based
# [7] = Multi-point microsome stability assay, human; assay type: in vitro ADME; settings: both, human microsomal fractions, pH 7.4
# [8] = target: T4, mouse mu opioid receptor (mMOR-CHO) (Mus musculus, UniProt P42866); assay: Competition radioligand binding assay, [3H]naloxone, mMOR-CHO membranes
# [9] = target: T4, mouse mu opioid receptor (mMOR-CHO); assay: [35S]GTPγS functional assay, mMOR-CHO membranes; assay type: biochemical
# [10] = target: T1, DOR (hDOR-CHO); assay: [35S]GTPγS functional assay, hDOR-CHO membranes; assay type: biochemical
# [11] = target: T5, human δ-opioid receptor (OPRD1) (Homo sapiens, UniProt P41143); assay: Forskolin-induced cAMP accumulation assay, DOR agonist mode
# [12] = Multi-point microsome stability assay, rat; assay type: in vitro ADME; settings: male, Sprague Dawley, rat microsomal fractions, pH 7.4
# [13] = Kinetic solubility assay; assay type: physicochemical; settings: kinetic from dmso stock
# [14] = Multi-point microsome stability assay, mouse; assay type: in vitro ADME; settings: male, CD-1, mouse, mouse microsomal fractions, pH 7.4
# [15] = target: T2, human κ-opioid receptor (OPRK1); assay: Forskolin-induced cAMP accumulation assay, KOR agonist mode
# [16] = target: T5, human δ-opioid receptor (OPRD1); assay: Forskolin-induced cAMP accumulation assay, DOR antagonist mode
# [17] = Multi-point cytosol stability assay, mouse; assay type: in vitro ADME; settings: mouse cytosol fractions, pH 7.4
# [18] = Multi-point cytosol stability assay, human; assay type: in vitro ADME; settings: human cytosol fractions, pH 7.4
# [19] = target: T3, KOR (mKOR-CHO); assay: [35S]GTPγS functional assay, mKOR-CHO membranes; assay type: biochemical; settings: KOR-mediated [35S]GTPγS binding, up to 30 μM
# [20] = SC 30 min before 15 min session, significant increase, 12 mice per dose
structure (smiles),measurement,setting,value
"C=C[C@H]1[C@H]2CCC[C@]1(c1cccc(C(N)=O)c1)CCN2CCc1ccccc1 [compound 5, 3-((1R,5S,9R)-2-Phenethyl-9-vinyl-2-azabicyclo[3.3.1]nonan-5-yl)benzamide]","Crosses, drug administered alone: dose different from Vehicle",[1]; [20],18 mg/kg
same,"Movement, drug administered alone: doses different from Vehicle",[1]; [20],10 to 18 mg/kg
same,antinociceptive attenuation of IP acid-induced depression of Crosses: dose different from Vehicle+IP acid,[1]; SC pretreatment to IP 0.56% lactic acid,18 mg/kg
same,Ki,[2],237 nM
same,half-life at 1 μM,[3],> 120 min
same,IC50,[4],> 10000 nM
same,Ki,[5],48.7 ± 7.06 nM
same,EC50,[6],5.28 nM
same,Emax,"[6]; OPRM1, read-out: MOR Agonist %Emax ± SEM",75.1%
same,half-life at 1 μM,[7],40.4 min
same,Ki,[8],1.24 ± 0.17 nM
same,EC50,[9],23.3 ± 6.45 nM
same,Emax,"[9]; read-out: GTPγS % Emax of (DAMGO), MOR, % of maximal DAMGO stimulation",15.4 ± 1.8%
same,EC50,[10],1460 ± 594 nM
same,Emax,[10]; read-out: DOR GTPγS % Emax of (DAMGO),-6.98 ± 1.21%
same,EC50,[11],6.01 ± 4.97 nM
same,Emax,[11]; read-out: DOR Agonist %Emax ± SEM,25.2%
same,half-life at 1 μM,[12],3.2 min
same,solubility kinetic,[13],5.1 µg/mL
same,half-life at 1 μM,[14],16.7 min
same,EC50,[15],> 10000 nM
same,IC50,[16],498 ± 208 nM
same,DOR Antagonist %Imax ± SEM,"[16]; versus EC50 of SNC80, normalized to naltrexone",117.6 ± 8.0%
same,half-life at 1 μM,[17],> 120 min
same,half-life at 1 μM,[18],> 120 min
same,KOR GTPγS % Emax of (DAMGO),[19],did not stimulate; also recorded: No Stim
